Consider 3 compounds from article PMC6504873, “High-throughput screening of the Plasmodium falciparum cGMP-dependent protein kinase identified a thiazole scaffold which kills erythrocytic and sexual stage parasites” (Scientific Reports, 2019).

Data set [1] has as its target PI3KD (Homo sapiens, UniProt O00329). In words: Preliminary safety test on human PI3KD kinase. The format is biochemical.
The subject of data set [2] is HepG2 cells. In words: Cytotoxicity assay (CellTiter-Glo). The format is cell-based. The following applies: Homo sapiens, HepG2, read-out: HepG2 (μM). As to the method:
Cytotoxicity assays were performed on HepG2 cells as previously described. HepG2 cells were removed from a T-175 TC flask using 5 mL Eagle’s MEM (containing 10% FBS, 1% NEAA, 1% penicillin/streptomycin) and dispersed in the medium. Seeding density was checked to ensure that new mono-layers were not more than 50% confluent at the time of harvesting. Cells were added to 500 mL of the same medium at a final density of 1.2 × 10^5 cells/mL. They were then dispensed (25 μL, about 3,000 cells per well) into 384-well clear-bottom plates using a Multidrop Combi dispenser. Test compounds (250 nL) were dispensed into the plates with an EchoH liquid handler prior to addition of the cells. Plates were incubated for 48 h at 37 °C, 5% CO2. After incubation, plates were equilibrated at room temperature for 30 minutes before proceeding to develop the luminescent signal. The CellTiter-GloH Reagent was allowed to equilibrate at room temperature for 30 minutes and added to the plates (25 μL per well) using a Multidrop Combi dispenser. Plates were left for 10 minutes at room temperature for stabilization and then read using a Perkin Elmer ViewLux.

Data set [3] can be described thus: Aqueous kinetic solubility assay (CAD). Type of data set: physicochemical. The following applies: several values in a cell = replicates. On the procedure: […] of 10 mM DMSO compound solution is diluted to 100 μl with pH7.4 phosphate buffered saline, equilibrated for 1 hour at room temperature and filtered through Millipore MultiscreenHTS-PCF filter plates (MSSL BPC). The filtrate is quantified by suitably calibrated Charged Aerosol Detector[56].

The target of data set [4] is T1, WT PfPKG (Plasmodium falciparum, UniProt Q8I719).
T1 construct: recombinant full length wild type (WT) PfPKG; His6 (N); host or cells: E. coli BL21
In words: Kinase Glo enzymatic assay, recombinant WT PfPKG. The format is biochemical, P. falciparum. As to conditions: WT PfPKG (μM), recombinant WT PfPKG. As to the method: To identify new PKG inhibitor scaffolds, the 1.7 million GlaxoSmithKline Full Diversity collection was tested at a single final concentration of 10 μM against recombinant full length wild type (WT) PfPKG using a Kinase Glo-based assay (Promega). The results gave a robust Z′ mean value of 0.85. At an average statistical cut-off of 30%, 20,174 primary hits were identified with an overall hit rate of 1%. Fresh samples of these primary hits were tested in duplicate against WT PfPKG and also against human PKGIα (HuPKGIα) (Supplementary Fig. 1) at a final concentration of 10 μM (confirmation step).
(§1) Protein production was outsourced to the Division of Signal Transduction Therapy, University of Dundee. Briefly, the pTRChis expression vectors (Invitrogen) containing an N-terminally His6-tagged PfPKG wildtype and T618Q were used to transform BL21 cells (protocol adapted from[23]). The cells were grown at 37 °C until the OD600 was 0.4–0.6 then the temperature was reduced to 15 °C and the cells were induced with 250 µM IPTG and grown for a further 16–18 hours before harvesting. The His6-PfPKG was purified on Cobalt agarose followed by gel filtration and the protein was dialysed into 25 mM Hepes pH 7.5, 0.1 mM EGTA, 150 mM NaCl, 50% glycerol and 2 mM DTT.
(§2) Initial optimization of the PKG assay was performed manually in 384-well plates and analysed with GraFit 7. The buffer for all assays was 25 mM HEPES pH 7.3 (GIBCO), 10 mM MgCl2 (Sigma), 2 mM DTT (Sigma), 0.01 mM cGMP (Sigma), 0.1 mg/ml BSA (Ambion). Enzymatic activity was tested using a luminescence-based kit (Promega KinaseGlo). Addition of the first reagent depletes the unused ATP and addition of the second reagent converts ADP (product of the kinase reaction) to ATP, which is then measured through a luciferin/luciferase reaction. The amount of luminescence is directly proportional to ATP turnover by the kinase. The kit was chosen because it can be miniaturized to small volumes (i.e. 4 µl) in 1536-well plates, for use in HTS.
(§3) We used PKA peptide substrate (SCP0212, Sigma-Aldrich) for WT and TQ PfPKG, dissolved in milliQ water at a final concentration of 5 mM, and Long S6 peptide substrate (produced at the University of Dundee, sequence […]) for HuPKGIα, dissolved in water at a final concentration of 30 mM.
(§4) We calculated the Michaelis-Menten (Km) constant for ATP and peptide substrate (PKA or Long S6) for all enzymes using GraphPad Prism (Supplementary Figs 2 and 3 and Supplementary Table 3). In order to identify different types of PKG inhibitors, including ATP competitive or non-competitive inhibitors, as well as inhibitors that bind to the peptide substrate pocket, we performed all assays using ATP and peptide substrate at a concentration equal to the Km. We also determined enzyme activity by calculating ATP turnover (Kcat) over the Km (Supplementary Table 3). The Kcat was calculated as (Vmax*slope)/[E] where Vmax is the maximum velocity and [E] is the concentration of the enzyme.
(§5) The plates containing the compounds were prepared at GSK in Upper Providence or Stevenage. Compounds were tested at a single final concentration of 10 µM or in a dose response with a range of concentrations starting from 100 μM to 1.6 nM (1 in 3 serial dilutions). Compounds were dispensed in the plates at the required concentration in a 40 nl volume. All plates (1536-well white Greiner) contained 40 nl of DMSO in lanes 11 and 12 (control 1, 100% enzyme activity) and were empty in lanes 35 and 36 (control 2, 0% enzyme activity). The plates were removed from −20 °C 1 hour before starting the assay. Using a Multidrop Combi dispenser (Thermo Scientific), 2 µl of the buffer containing ATP and the substrate were added to all wells then 2 µl of buffer only were added to column 35 and 36. Finally 2 µl of buffer containing the enzyme were dispensed in all the plate wells except for lanes 35 and 36. […]

Data set [5] concerns the target T2, TQ PfPKG (PfPKG_T618Q) (Plasmodium falciparum, UniProt Q8I719, T618Q).
T2 construct: His6 (N); host or cells: E. coli BL21
In words: Kinase Glo enzymatic assay, gatekeeper mutant TQ PfPKG. The format is biochemical, P. falciparum. As to the method: Taking advantage of the availability of more than 3,000 thiazole derivatives among the GSK compound collection, cluster 3 was thoroughly investigated for potent and selective inhibitors of WT PfPKG. […] We explored the binding mode by also testing compounds on the gatekeeper mutant enzyme TQ PfPKG. […] These two time points were chosen to give an indication of the speed of kill of the compounds. […] A preliminary safety test was performed on human AuroraB and LCK kinases which often underpin toxicity issues. […] Further assays for compound characterization included determination of solubility and cytotoxicity (HepG2 inhibition). Thiazoles have been previously identified as human BRaf inhibitors that are used to treat melanoma.
as §1, §2, §3, §4
as §5, with “36.” for “36. Finally 2 µl of buffer containing the enzyme were dispensed in all the plate wells except for lanes 35 and 36.”

Data set [6] is described as follows: PFI. Type of data set: physicochemical. On the procedure:
Dose response assays were performed in duplicate on WT PfPKG, HuPKGIα and a mock assay performed in the absence of enzyme (the counterscreen). Comparison of the PfPKG and HuPKGIα IC50 values gave information on selectivity and the counterscreen identified luminescent false positive compounds (see Materials and Methods). Cytotoxicity assays were also performed using a human hepatoma cell line (HepG2)[30]. […] This set of compounds was clustered by similarity using a complete-linkage algorithm and a threshold of 0.55[31]. A total of 79 clusters and 54 singletons were obtained.

Data set [7] can be described thus: ChromlogD (lipophilicity).
Data set [8] in a line: AM_Perm (artificial membrane permeability). The format is in vitro ADME. The following applies: PAMPA.
The test system of data set [9] is P. falciparum. Set-up: method as in PMID 28446690. As to conditions: P. falciparum mouse model ref 44; cited from earlier work.
In data set [10] the test system is P. berghei. Set-up: method as in PMID 28446690. As to conditions: P. berghei mouse model ref 44; cited from earlier work.
On the set-up of data set [11]: method as in PMID 24958809. As to conditions: in the clinic ref 39; cited from earlier work.

Values after ≈ are worked out from the molar mass of the structure shown. Where only a bound is given, the exact number is not on record here.

T2 sequence (Q8I719 whole entry T618Q): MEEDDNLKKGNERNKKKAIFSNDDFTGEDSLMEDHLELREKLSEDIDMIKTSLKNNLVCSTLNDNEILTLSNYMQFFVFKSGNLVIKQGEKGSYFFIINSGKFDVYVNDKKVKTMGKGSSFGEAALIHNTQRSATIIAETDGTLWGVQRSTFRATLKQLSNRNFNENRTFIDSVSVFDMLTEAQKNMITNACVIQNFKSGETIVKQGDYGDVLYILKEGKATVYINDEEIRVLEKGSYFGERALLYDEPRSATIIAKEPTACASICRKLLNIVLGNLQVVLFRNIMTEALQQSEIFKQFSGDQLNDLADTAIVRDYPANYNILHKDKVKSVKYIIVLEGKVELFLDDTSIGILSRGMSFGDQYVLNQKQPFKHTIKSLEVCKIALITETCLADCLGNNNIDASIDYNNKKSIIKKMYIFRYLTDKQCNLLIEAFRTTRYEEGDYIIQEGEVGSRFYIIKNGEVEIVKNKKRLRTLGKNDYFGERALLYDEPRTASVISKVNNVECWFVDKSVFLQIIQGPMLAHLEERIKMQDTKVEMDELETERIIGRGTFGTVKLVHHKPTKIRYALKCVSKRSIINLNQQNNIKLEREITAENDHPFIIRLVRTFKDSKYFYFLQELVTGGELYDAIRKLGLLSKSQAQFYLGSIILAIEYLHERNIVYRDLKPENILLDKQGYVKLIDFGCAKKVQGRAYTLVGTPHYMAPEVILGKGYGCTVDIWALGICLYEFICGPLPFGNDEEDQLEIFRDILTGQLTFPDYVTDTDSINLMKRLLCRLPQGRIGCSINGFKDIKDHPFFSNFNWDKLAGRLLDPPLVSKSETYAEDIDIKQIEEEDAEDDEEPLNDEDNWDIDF
T1 sequence (Q8I719 whole entry): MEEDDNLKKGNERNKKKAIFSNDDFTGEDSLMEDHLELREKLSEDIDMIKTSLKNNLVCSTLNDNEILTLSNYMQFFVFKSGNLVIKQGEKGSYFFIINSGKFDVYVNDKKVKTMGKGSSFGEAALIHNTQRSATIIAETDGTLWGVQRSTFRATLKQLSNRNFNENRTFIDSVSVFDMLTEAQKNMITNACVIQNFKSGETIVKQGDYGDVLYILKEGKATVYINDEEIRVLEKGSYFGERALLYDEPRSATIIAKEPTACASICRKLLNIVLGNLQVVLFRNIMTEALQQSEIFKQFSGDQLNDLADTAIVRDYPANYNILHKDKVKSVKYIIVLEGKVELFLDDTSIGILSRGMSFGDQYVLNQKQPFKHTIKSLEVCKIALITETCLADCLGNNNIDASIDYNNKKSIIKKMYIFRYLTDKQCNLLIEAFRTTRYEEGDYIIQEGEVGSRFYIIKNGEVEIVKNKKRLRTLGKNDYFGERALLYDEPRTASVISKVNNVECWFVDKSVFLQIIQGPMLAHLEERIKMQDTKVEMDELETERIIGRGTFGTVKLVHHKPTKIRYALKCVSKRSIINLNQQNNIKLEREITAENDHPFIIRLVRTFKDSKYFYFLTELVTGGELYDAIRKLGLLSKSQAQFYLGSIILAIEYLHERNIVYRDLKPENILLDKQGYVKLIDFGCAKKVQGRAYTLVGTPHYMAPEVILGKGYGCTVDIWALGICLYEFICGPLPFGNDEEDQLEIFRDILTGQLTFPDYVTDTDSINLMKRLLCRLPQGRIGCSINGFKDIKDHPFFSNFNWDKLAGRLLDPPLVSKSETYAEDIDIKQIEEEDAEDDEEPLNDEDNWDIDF
Sequence of PI3KD (O00329 whole entry): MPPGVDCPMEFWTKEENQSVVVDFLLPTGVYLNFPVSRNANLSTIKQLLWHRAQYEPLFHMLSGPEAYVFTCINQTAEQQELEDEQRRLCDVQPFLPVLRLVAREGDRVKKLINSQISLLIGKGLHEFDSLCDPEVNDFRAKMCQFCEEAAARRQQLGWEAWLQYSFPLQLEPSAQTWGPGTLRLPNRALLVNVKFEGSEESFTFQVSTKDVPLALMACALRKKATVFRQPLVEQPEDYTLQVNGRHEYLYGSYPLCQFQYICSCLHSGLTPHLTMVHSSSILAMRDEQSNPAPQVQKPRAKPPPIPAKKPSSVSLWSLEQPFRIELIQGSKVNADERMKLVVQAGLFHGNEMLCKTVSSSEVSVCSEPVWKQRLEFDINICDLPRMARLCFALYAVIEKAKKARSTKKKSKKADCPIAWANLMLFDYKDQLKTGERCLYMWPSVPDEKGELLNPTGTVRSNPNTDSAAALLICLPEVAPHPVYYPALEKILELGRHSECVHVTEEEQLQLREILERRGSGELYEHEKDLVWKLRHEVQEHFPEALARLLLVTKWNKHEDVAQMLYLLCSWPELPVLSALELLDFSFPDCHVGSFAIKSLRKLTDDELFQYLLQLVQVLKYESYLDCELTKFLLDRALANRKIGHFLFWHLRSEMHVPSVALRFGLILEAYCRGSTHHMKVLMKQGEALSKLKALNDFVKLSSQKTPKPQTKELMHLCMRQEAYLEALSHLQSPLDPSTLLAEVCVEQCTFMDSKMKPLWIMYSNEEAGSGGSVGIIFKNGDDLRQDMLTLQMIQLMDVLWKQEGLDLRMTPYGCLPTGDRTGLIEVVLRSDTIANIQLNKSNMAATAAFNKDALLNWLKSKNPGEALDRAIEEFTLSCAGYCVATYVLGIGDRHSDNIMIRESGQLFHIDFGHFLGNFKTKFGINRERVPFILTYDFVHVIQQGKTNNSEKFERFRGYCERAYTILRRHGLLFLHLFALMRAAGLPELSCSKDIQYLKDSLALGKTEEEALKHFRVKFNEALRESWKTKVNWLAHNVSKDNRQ
Sequence of PI3KD (P27986 whole entry partner): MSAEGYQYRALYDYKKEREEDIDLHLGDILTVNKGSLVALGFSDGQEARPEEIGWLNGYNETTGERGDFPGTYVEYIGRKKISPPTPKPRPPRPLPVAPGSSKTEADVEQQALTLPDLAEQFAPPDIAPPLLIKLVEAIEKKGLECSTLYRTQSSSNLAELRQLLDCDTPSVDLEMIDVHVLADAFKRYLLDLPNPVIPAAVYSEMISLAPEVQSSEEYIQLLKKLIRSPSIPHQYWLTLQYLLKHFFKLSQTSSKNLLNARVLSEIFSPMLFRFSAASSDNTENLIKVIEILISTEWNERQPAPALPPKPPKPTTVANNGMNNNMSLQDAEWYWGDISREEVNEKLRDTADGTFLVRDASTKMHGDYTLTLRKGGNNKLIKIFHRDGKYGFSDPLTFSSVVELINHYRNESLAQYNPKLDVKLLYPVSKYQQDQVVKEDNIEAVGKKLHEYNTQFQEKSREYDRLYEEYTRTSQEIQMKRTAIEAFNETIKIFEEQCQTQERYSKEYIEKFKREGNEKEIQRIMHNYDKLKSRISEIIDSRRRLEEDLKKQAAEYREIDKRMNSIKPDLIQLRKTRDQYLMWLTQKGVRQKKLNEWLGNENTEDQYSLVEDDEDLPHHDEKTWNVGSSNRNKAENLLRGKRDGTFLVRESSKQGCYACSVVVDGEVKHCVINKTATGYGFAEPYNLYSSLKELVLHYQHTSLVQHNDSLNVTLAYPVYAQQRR

Consider `Nc1nccc(-c2c(-c3ccc(F)cc3)ncn2C2CCNCC2)n1` [Compound 1], for which the IC50 is over 50.1 µM in data set [1], over 100 µM in data set [2], 0.066 µM in data set [4] and over 100 µM in data set [5]. Also, the solubility at 1 h is 155 µM (≈ 52.5 µg/mL) in data set [3] (pH 7.4, aqueous buffer, kinetic from dmso stock) and 291 µM (≈ 98.5 µg/mL) in data set [3]. The compound further gave a PFI in data set [6] of 3.8. The chromatographic logD in data set [7] was 0.8. Moreover, the AM Perm in [8] was found to be 9.1 ×10⁻⁶ cm/s.

Take `CS(=O)(=O)c1ccc(-c2cnc(N)c(-c3ccc(C(F)(F)F)nc3)c2)cc1` [MMV390048]: the ED90 in [9] is recorded as 0.57 mg/kg; in data set [10], 1.1 mg/kg.

As to `CC(C)(C)c1nc(-c2cccc(NS(=O)(=O)c3c(F)cccc3F)c2F)c(-c2ccnc(N)n2)s1` [dabrafenib], the “patients experiencing severe adverse events” value in data set [11] is recorded as 24%.
